# From patent EP4692082A1, “CRYSTAL FORM OF 2,6-PIPERIDINEDIONE COMPOUND, AND PREPARATION METHOD THEREFOR AND USE THEREOF” (Zhangzhou Pien Tze Huang Pharmaceutical Co., Ltd., priority 2023, dated 2024)
# Counter-ions that a name gives are not always drawn.
# Tests used:
# [1] = Pharmacokinetic evaluation in mice; assay type: in vivo, C57BL/6 or C57 mice
# From the text: C57BL/6 or C57 male mice were selected as the test animals for this study. The LC/MS/MS method was employed to quantitatively determine the plasma drug concentrations at various time points after intravenous injection or intragastric administration of the test compound, aiming to evaluate the pharmacokinetic characteristics of the compound of the present disclosure in mice.
# C57BL/6 or C57 mice (male, 20 to 30g, 7 to 10 weeks old, Beijing Vital River).
# A clear solution of the test compound was injected intravenously into the tail vein of C57BL/6 mice (fasted overnight) (vehicle: 10% DMSO/10% solutol/80% H2O), or administered intragastrically to C57 mice (fed). […] The mixture was thoroughly vortexed and mixed, and centrifuged at 6000 g for 3 minutes at 2 to 8°C. […] The mixture was thoroughly vortexed and mixed, and centrifuged at 6000 g for 3 minutes at 2 to 8°C. Plasma drug concentrations were determined by the LC-MS/MS method, and relevant pharmacokinetic parameters were calculated using Phoenix WinNonlin 8.2.0 pharmacokinetic software with non-compartmental model linear-log trapezoidal method. Table 20. Pharmacokinetic parameters of the compound of the present disclosure in mice
# IKZF3 = IKZF3 (Homo sapiens, UniProt Q96SW2+Q9UKT9); assay: In cell western analysis of IKZF3 protein expression level in MM.1S cells
# Sequence of IKZF3 (Q9UKT9 whole entry): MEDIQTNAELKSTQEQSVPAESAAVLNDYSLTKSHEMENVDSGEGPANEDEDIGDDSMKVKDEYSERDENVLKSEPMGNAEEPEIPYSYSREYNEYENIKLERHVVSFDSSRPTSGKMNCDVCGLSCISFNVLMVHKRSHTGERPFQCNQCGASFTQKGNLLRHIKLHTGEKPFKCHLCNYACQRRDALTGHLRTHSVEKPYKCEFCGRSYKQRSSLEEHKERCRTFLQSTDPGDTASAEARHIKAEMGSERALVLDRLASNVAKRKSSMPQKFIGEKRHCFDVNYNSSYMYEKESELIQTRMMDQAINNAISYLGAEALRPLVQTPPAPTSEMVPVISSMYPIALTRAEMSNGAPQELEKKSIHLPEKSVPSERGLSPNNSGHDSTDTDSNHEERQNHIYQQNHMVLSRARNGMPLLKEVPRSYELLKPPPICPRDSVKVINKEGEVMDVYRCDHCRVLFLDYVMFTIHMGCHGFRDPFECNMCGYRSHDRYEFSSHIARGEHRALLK
# Sequence of IKZF3 (Q96SW2 whole entry): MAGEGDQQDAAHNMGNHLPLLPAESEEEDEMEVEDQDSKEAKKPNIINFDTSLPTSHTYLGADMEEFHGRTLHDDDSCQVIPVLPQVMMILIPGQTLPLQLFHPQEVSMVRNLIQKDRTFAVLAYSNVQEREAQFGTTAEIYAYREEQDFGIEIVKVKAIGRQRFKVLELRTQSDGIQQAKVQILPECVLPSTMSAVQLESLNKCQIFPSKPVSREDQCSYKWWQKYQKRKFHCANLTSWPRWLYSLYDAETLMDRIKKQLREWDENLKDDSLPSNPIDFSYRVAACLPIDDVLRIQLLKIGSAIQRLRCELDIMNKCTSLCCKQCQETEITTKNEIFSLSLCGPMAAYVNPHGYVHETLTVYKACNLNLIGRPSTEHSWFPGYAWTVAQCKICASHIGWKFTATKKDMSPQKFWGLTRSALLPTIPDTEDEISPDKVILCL
# Sequence of IKZF3 (Q16531 whole entry partner): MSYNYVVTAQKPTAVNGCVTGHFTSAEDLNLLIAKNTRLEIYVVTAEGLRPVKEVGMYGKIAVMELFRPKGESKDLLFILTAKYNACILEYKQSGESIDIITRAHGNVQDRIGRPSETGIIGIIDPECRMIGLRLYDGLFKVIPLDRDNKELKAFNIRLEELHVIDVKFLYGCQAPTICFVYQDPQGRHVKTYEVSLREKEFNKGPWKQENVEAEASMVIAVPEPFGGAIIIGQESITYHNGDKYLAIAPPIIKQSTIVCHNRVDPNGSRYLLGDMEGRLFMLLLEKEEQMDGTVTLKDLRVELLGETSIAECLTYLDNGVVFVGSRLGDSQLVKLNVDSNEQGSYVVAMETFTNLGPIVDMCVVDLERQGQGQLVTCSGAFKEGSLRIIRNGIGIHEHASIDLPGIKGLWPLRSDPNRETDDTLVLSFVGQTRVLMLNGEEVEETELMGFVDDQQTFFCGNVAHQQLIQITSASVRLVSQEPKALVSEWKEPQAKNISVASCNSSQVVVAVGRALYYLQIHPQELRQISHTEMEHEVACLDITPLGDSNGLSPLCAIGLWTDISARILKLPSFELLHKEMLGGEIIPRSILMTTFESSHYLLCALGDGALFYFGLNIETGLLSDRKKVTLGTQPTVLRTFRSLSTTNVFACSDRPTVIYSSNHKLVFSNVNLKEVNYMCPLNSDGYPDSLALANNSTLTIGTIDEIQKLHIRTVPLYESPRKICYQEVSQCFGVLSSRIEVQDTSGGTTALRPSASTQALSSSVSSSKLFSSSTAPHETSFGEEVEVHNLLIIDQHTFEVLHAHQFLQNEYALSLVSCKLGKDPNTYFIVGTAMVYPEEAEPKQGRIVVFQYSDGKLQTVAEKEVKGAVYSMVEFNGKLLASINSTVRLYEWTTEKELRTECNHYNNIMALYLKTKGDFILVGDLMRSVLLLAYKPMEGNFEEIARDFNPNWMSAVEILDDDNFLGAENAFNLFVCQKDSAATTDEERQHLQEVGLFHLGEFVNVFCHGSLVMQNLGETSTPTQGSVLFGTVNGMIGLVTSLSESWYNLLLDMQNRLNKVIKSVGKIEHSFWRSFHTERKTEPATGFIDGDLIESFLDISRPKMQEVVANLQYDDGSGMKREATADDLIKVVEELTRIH
# Description: (§1) • 1) MM.1S cells in the logarithmic growth phase were seeded into a 96-well plate at 1.2x10^5 cells per well and cultured overnight. • 2) On the second day, drug treatment was initiated with a starting concentration of 300 nM, followed by a 3-fold dilution in triplicate wells, with 10 concentration gradients (containing DMSO), and incubated for 24 hours in a culture incubator. • 3) The mixture was centrifuged, and the cell supernatant was carefully removed. […] The mixture was incubated at room temperature on a shaker for 5 min. • 12) The washing step was repeated 4 times. • 13) The secondary antibody diluent was prepared by adding Tween 20 to the Licor [sequence] blocking buffer at a final concentration of 0.2%. • 14) The fluorescent secondary antibody was diluted in the dark (1:800 dilution). To 400 µL of the secondary antibody diluent, 0.5 µLeach of IRDye 800CW and IRDye 680CW was added (the corresponding fluorescent secondary antibody for the primary antibody). • 15) 50 µL of the diluted fluorescent secondary antibody was added to each well, followed by incubation at room temperature on a shaker in the dark for 60 min. • 16) The secondary antibody was removed, and 200 µL of PBST was added along the well wall without touching the bottom cells. […]
# (§2) GraphPad Prism 6 software was utilized to fit the curve with the inhibition rate data, and the DC50 value was calculated.
# IRAK4 = molecular target: T1, IRAK4 (Homo sapiens, UniProt Q9NWZ3); assay: Target protein degradation in K562 IRAK4-HiBiT cells (Nano-Glo HiBiT); assay type: cell-based
# T1 construct: expressed in transfected cells; host or cells: K562 IRAK4-HiBiT cells
# T1 sequence (Q9NWZ3 1-460): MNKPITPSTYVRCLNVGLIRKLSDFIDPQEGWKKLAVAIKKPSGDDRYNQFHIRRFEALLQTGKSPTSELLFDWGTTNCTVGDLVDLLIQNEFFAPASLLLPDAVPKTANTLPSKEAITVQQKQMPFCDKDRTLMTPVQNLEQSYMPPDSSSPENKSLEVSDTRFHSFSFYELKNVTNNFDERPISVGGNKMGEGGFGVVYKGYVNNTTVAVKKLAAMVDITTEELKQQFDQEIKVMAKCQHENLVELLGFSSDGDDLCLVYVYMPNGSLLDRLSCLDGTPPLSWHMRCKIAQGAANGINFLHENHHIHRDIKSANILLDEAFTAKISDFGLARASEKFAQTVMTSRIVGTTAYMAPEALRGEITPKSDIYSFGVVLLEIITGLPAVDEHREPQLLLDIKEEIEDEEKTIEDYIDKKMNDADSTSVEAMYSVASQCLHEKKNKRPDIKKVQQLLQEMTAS
# Description: • Cells: K562 IRAK4-HiBiT cells • Culture medium: RPMI 1640 + 10% fetal bovine serum + 2 mM glutamine + 1 mM sodium pyruvate + penicillin/streptomycin • Positive control: 1000 nM; negative control: 0.1% DMSO Table 6. Reagents and consumables […]
# • (1) The cell culture medium was discarded, and the cells were washed once with DPBS, digested with trypsin, and counted to prepare a cell suspension of […]. • (2) 25 µL/well of cell suspension was added to the assay plate containing the test compound using Multidrop Combi at medium speed. • (3) The assay plate containing cells was returned to an incubator with 5% CO2 at 37°C and incubated for 16 to 18 hours.
# • (1) 25 µL/well of assay reagent (NanoGlo lysis buffer + substrate + LgBit protein) was added to the assay plate using Multidrop Combi at high speed, and the plate was shaken for 10 minutes. • (2) The plate was centrifuged at 2000 rpm for 1 minute to remove air bubbles. • (3) The plate was read on Envision using US Luminescence detection method.
# The degradation rate (DR) of the test compound was calculated using the following formula: DR (%) = (RLU vehicle control - RLU compound)/(RLU vehicle control - RLU positive control)*100%, where the vehicle control served as the blank control. […]
# [2] = Pharmacokinetic evaluation in beagle dogs; assay type: in vivo; conditions: Beagle dogs (fed)
# From the text: Male beagle dogs were selected as the experimental animals in this study. The LC/MS/MS method was employed to quantitatively determine the plasma drug concentrations at different time points after intravenous injection or intragastric administration of the test compound, aiming to evaluate the pharmacokinetic characteristics of the compound of the present disclosure in beagle dogs.
# Beagle dogs (male, 7 to 10 kg, Beijing Mars Biotechnology Co., Ltd.).
# A solution of the test compound was slowly injected intravenously into beagle dogs (fed) via the peripheral vein (vehicle: 5% DMSO/10% Solutol/85% H2O), or administered intragastrically to beagle dogs (fed). For intravenous administration, 0.5 mL of blood was collected from the peripheral vein at 0.083, 0.25, 0.5, 1, 2, 4, 6, 8, and 24 h after administration, placed in EDTA-2K anticoagulant tubes, and centrifuged at 3200 g for 10 minutes at 2 to 8°C to separate the supernatant. For intragastric administration, 0.5 mL of blood was collected from the peripheral vein at 0.083, 0.25, 0.5, 1, 2, 4, 6, 8, and 24 h after administration, placed in EDTA-2K anticoagulant tubes, and centrifuged at 3200 g for 10 minutes at 2 to 8°C to separate the supernatant. Plasma drug concentrations were determined by the LC-MS/MS method, and relevant pharmacokinetic parameters were calculated using Phoenix WinNonlin 6.3 or 8.3.5 pharmacokinetic software with non-compartmental model linear-log trapezoidal method.
# IKZF1 = IKZF1 (Homo sapiens, UniProt Q13422+Q96SW2); assay: In cell western analysis of IKZF1 protein expression level in MM.1S cells
# Sequence of IKZF1 (Q13422 whole entry): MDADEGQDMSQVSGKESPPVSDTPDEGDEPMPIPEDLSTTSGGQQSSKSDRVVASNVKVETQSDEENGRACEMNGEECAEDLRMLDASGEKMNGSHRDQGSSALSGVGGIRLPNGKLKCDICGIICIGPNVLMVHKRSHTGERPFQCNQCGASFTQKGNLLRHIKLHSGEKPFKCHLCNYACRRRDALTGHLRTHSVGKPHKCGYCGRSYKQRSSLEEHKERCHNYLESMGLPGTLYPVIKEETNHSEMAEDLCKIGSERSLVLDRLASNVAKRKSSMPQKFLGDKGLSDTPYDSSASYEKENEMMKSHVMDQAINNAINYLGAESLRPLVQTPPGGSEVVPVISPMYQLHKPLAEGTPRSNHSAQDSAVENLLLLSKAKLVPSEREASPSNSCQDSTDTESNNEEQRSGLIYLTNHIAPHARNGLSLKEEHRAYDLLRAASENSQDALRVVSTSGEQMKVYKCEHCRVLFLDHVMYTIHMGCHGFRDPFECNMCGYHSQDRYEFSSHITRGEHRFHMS
# Sequence of IKZF1 (Q96SW2 whole entry): as the sequence (Q96SW2 whole entry) above
# Sequence of IKZF1 (Q16531 whole entry partner): as the sequence (Q16531 whole entry partner) above
# Description: as §1, §2
# [3] = Intragastric administration (10 mg/kg) (fed)
# [4] = MM1.S, read-out: Maximum Degradation Rate Dmax
# [5] = Intragastric Administration, 5 mg/kg
# [6] = Intragastric Administration, 15 mg/kg
# [7] = Intravenous Injection (0.5 mg/kg)
compound,measurement,setting,value
O=C1CCC(c2noc3ccc4c(NC(=O)CN5CCN(C[C@H]6CC[C@H](n7cc(NC(=O)c8coc(-c9ccnc(NCC%10CC%10)c9)n8)c(C(F)F)n7)CC6)CC5)cccc4c23)C(=O)N1 (relative stereo) [Hydrochloride of Compound of Formula (I)],Area Under the Drug-Time Curve (0-inf),[1]; [3],4.47 µM·h
same,Peak Concentration,[1]; [3],0.54 µM
same,Time to Peak Concentration,[1]; [3],1.00 h
same,Area Under the Drug-Time Curve (0-inf),[1]; Intravenous Injection (2 mg/kg) (fasted),5.40 µM·h
same,DC50,"IKZF3; IKZF3, MM.1S cells, 24 hours",20.6 nM
same,Dmax,IKZF3; [4],73.5%
same,Dmax,"IRAK4; K562, read-out: Maximum Degradation Rate",108%
same,DC50,"IRAK4; K562 IRAK4-HiBiT cells, incubated 16 to 18 hours",4.87 nM
same,Area Under the Drug-Time Curve (0-inf),[2]; [5],3.20 µM·h
same,Peak Concentration,[2]; [5],0.41 µM
same,Time to Peak Concentration,[2]; [5],4.00 h
same,Area Under the Drug-Time Curve (0-inf),[2]; [6],8.02 µM·h
same,Peak Concentration,[2]; [6],0.87 µM
same,Time to Peak Concentration,[2]; [6],4.00 h
same,Apparent Distribution Volume,[2]; [7],5.83 L/kg
same,Area Under the Drug-Time Curve (0-inf),[2]; [7],0.44 µM·h
same,DC50,"IKZF1; IKZF1, MM.1S cells, 24 hours",23.4 nM
same,Dmax,IKZF1; [4],72.3%
